Test results published in ChEMBL document CHEMBL1201862, “PubChem BioAssay data set” (2004).
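Cells were grown in 96-well plates and exposed to each compound for 48 hours at five concentrations; endpoints were interpolated linearly between bracketing concentrations, or set to the highest concentration if not reached. Abbreviation: GI50, concentration required for 50% inhibition of growth.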 Calls of active or inactive are those of the source. Rule as the data show it: active = GI50 up to about 1.1 µM and inactive = higher.

Legend:
Assay in all cases: NCI anticancer screen, dose series, 48 h
[1] = tested on: A549
[2] = tested on: ACHN
[3] = tested on: COLO 205
[4] = tested on: DMS-273
[5] = tested on: IGROV-1
[6] = tested on: K562
[7] = tested on: KM12
[8] = tested on: NCI-H226
[9] = tested on: NCI-H23
[10] = tested on: NCI-H460
[11] = tested on: NCI-H522
[12] = tested on: SF-295
[13] = tested on: SK-MEL-5
[14] = tested on: SW-620
[15] = tested on: U-251
[16] = tested on: UACC-257
[17] = tested on: HCT-116
[18] = tested on: HOP-92

Measured: GI50

Cc1ccc([N+](=O)[O-])cc1NC(=O)c1cccc([N+](=O)[O-])c1O
inactive: [1] 22.4 µM | [2] 14.4 µM | [3] 17.1 µM | [4] 11.9 µM | [5] 11.7 µM | [6] 12.3 µM | [7] 19.1 µM | [8] 13.6 µM | [9] 12.3 µM | [10] 12.2 µM | [11] 3.97 µM | [12] 18 µM | [13] 7.91 µM | [14] 34.2 µM | [15] 15.9 µM | [16] 9.59 µM

CC1=NN(C(=O)c2cc(Cl)cc([N+](=O)[O-])c2)C(=O)C1/N=N/c1ccccc1C(=O)O (stereo unspecified)
inactive: [1] > 100 µM | [2] > 100 µM | [3] > 100 µM | [4] > 100 µM | [17] > 100 µM | [5] > 100 µM | [6] > 100 µM | [7] > 100 µM | [8] > 100 µM | [9] > 100 µM | [10] > 100 µM | [11] 36.6 µM | [12] > 100 µM | [13] > 100 µM | [14] > 100 µM | [15] > 100 µM | [16] > 100 µM

CC1CCc2c(sc3ncnc(N/N=C/c4ccc(Cl)cc4)c23)C1 (stereo unspecified)
inactive: [1] 31 µM | [2] 27.3 µM | [3] 31.6 µM | [4] 37.4 µM | [17] 19.3 µM | [5] 53.1 µM | [6] 18.6 µM | [8] 11.7 µM | [9] 32.8 µM | [10] 29.4 µM | [11] 25.9 µM | [12] 29.8 µM | [13] 17.6 µM | [14] 35.6 µM | [15] 31.9 µM | [16] 29.8 µM

O=C(O)CCSC(=S)Nc1cccc(F)c1
inactive: [1] 77.4 µM | [2] 23.8 µM | [3] 57.5 µM | [4] 46.9 µM | [17] 97.3 µM | [18] 25 µM | [5] 29.2 µM | [6] 32.3 µM | [7] 42.1 µM | [8] 33.7 µM | [9] 36.1 µM | [10] 83.9 µM | [12] 28.7 µM | [13] 20 µM | [14] > 100 µM | [15] 47.3 µM | [16] 22.3 µM

CSc1n/c(=N\c2ccccc2)sn1-c1ccccc1
inactive: [1] 16.6 µM | [2] 18.9 µM | [3] 7.73 µM | [4] 8.83 µM | [17] 8.43 µM | [5] 4.65 µM | [6] 3.24 µM | [7] 17.3 µM | [8] 15.5 µM | [9] 14.1 µM | [10] 4.79 µM | [11] 2.71 µM | [12] 21.5 µM | [13] 11.2 µM | [14] 12.3 µM | [15] 14.9 µM | [16] 20.3 µM

CN(C)CCNC(=O)c1cccc2ccc(-c3cccnc3)nc12
inactive: [1] 3.7 µM | [2] 3.44 µM | [3] 3.13 µM | [4] 3.35 µM | [17] 3.24 µM | [18] 4.39 µM | [5] 3.24 µM | [6] 4.74 µM | [7] 6.5 µM | [8] 6.84 µM | [9] 4.39 µM | [10] 2.94 µM | [12] 5.69 µM | [13] 3.72 µM | [14] 3.76 µM | [15] 4.36 µM | [16] 4.15 µM

CC(=O)O[C@]12CCCCCCC1C1(O)C(O)CCC[C@H]12 (stereo partly specified)
inactive: [1] > 100 µM | [2] > 100 µM | [3] > 100 µM | [4] > 100 µM | [17] > 100 µM | [6] > 100 µM | [7] > 100 µM | [8] > 100 µM | [9] > 100 µM | [10] > 100 µM | [11] > 100 µM | [12] > 100 µM | [13] > 100 µM | [14] > 100 µM | [15] > 100 µM | [16] > 100 µM
